# From patent publication US11447475B2, “Isoxazole N-linked carbamoyl cyclohexyl acids as LPA antagonists” (BRISTOL-MYERS SQUIBB COMPANY, priority 2017, dated 2022)
# Where two headings read alike, the source gives them in different places.
# Biological target: T1, human LPA1 (Homo sapiens, UniProt Q92633)
# T1 construct: expressed in transfected cells; host or cells: Chinese hamster ovary (CHO) cells
# Assay: LPA1 functional antagonist assay (calcium flux)
# Type: cell-based
# Conditions: read-out: hLPA1 IC50
# Protocol: The effectiveness of compounds of the present invention as LPA1 inhibitors can be determined in an LPA1 functional antagonist assay as follows:
# Chinese hamster ovary cells overexpressing human LPA1 were plated overnight (15,000 cells/well) in poly-D-lysine coated 384-well microplates (Greiner bio-one, Cat #781946) in DMEM/F12 medium (Gibco, Cat #11039). Following overnight culture, cells were loaded with calcium indicator dye (AAT Bioquest Inc, Cat #34601) for 30 minutes at 37° C. The cells were then equilibrated to room temperature for 30 minutes before the assay. Test compounds solubilized in DMSO were transferred to 384 well non-binding surface plates (Corning, Cat #3575) using the Labcyte Echo acoustic dispense and diluted with assay buffer [1×HBSS with calcium/magnesium (Gibco Cat #14025-092), 20 mM HEPES (Gibco Cat #15630-080) and 0.1% fatty acid free BSA (Sigma Cat #A9205)] to a final concentration of 0.5% DMSO. Diluted compounds were added to the cells by FDSS6000 (Hamamatsu) at final concentrations ranging from 0.08 nM to 5 μM. and were then incubated for 20 min at room temperature at which time LPA (Avanti Polar Lipids Cat #857130C) was added at final concentrations of 10 nM to stimulate the cells. […] IC50 values were determined by fitting data to a 4-parameter logistic equation (GraphPad Prism, San Diego Calif.).
# T1 sequence (Q92633 whole entry): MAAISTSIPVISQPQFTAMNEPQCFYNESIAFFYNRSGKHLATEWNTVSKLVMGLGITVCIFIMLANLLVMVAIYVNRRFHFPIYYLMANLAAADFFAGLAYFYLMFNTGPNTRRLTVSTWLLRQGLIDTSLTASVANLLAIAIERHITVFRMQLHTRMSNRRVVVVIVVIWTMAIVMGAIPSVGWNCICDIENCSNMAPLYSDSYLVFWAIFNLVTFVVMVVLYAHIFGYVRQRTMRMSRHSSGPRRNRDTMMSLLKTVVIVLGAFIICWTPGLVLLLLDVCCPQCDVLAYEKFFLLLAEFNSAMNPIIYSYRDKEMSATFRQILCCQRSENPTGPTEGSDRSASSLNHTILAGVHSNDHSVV
IC50,"IC50 (CHO cells overexpressing human LPA1, inhibition of calcium flux induced by 10 nM LPA)",SMILES
319 nM,–,CCCCOC(=O)NCc1c(C)noc1-c1ccc(O[C@@H]2CCC[C@@H](C(=O)O)C2)cc1 (racemic) [Example 23]
2130 nM,–,Cc1noc(-c2ccc(O[C@@H]3CCC[C@@H](C(=O)O)C3)cc2)c1CNC(=O)OCC(C)C (racemic) [Example 22]
14 nM,–,Cc1noc(-c2ccc(O[C@H]3CCC[C@H](C(=O)O)C3)cn2)c1CN(C)C(=O)OCc1ccccc1 [Example 64]
159 nM,–,Cc1noc(-c2ccc(O[C@@H]3CCC[C@@H](C(=O)O)C3)cc2)c1CNC(=O)OCc1ccc(F)cc1 [Example 18]
244 nM,–,Cc1noc(-c2ccc(O[C@@H]3CCC[C@@H](C(=O)O)C3)cc2)c1CNC(=O)OCc1ccccc1Cl [Example 20]
30 nM,–,Cc1nc(-c2onc(C)c2CNC(=O)OC(C)C)ccc1O[C@H]1CCC[C@H](C(=O)O)C1 [Example 47]
257 nM,–,Cc1noc(-c2ccc(O[C@@H]3CCC[C@@H](C(=O)O)C3)cc2)c1CNC(=O)OCc1cccc(F)c1 (racemic) [Example 21]
49 nM,–,"Cc1noc(-c2ccc(O[C@@H]3CCC[C@@H](C(=O)O)C3)cn2)c1CNC(=O)OCc1ccccc1 (single isomer, unassigned) [Example 57]"
30 nM,–,Cc1noc(-c2ccc(O[C@H]3CCC[C@H](C(=O)O)C3)cn2)c1CNC(=O)OCc1cccc(Cl)c1 [Example 4]
11 nM,–,Cc1noc(-c2ccc(O[C@H]3CCC[C@H](C(=O)O)C3)cn2)c1CNC(=O)OC1CC(C)(C)C1 [Example 59]
8 nM,–,CCCCCOC(=O)NCc1c(C)noc1-c1ccc(O[C@H]2CCC[C@H](C(=O)O)C2)c(C)n1 [Example 43]
4 nM,–,"Cc1noc(-c2ccc(O[C@H]3CCC[C@H](C(=O)O)C3)cn2)c1CNC(=O)OCc1ccccc1 (single isomer, unassigned) [Example 56]"
34 nM,–,Cc1nc(-c2onc(C)c2CN(C)C(=O)OCC(C)C)ccc1O[C@H]1CCC[C@H](C(=O)O)C1 [Example 40]
152 nM,–,Cc1noc(-c2ccc(O[C@@H]3CCC[C@@H](C(=O)O)C3)cc2)c1CNC(=O)OCc1ccccc1F [Example 19]
30 nM,–,"Cc1noc(-c2ccc(O[C@H]3CCC[C@H](C(=O)O)C3)cn2)c1NC(=O)O[C@H](C)C1CC1 [Example 34, (1S,3S)-3-((6-(4-((((R)-1-cyclopropylethoxy)carbonyl)amino)-3-methylisoxazol-5-yl)pyridin-3-yl)oxy)cyclohexane-1-carboxylic Acid]"
37 nM,–,CCC[C@@H](C)OC(=O)NCc1c(C)noc1-c1ccc(O[C@H]2CCC[C@H](C(=O)O)C2)cn1 [Example 58]
96 nM,–,CCC(C)COC(=O)NCc1c(C)noc1-c1ccc(O[C@@H]2CCC[C@@H](C(=O)O)C2)cc1 (mixture of isomers) [Example 25]
334 nM,–,Cc1noc(-c2ccc(O[C@@H]3CCC[C@@H](C(=O)O)C3)cc2)c1CNC(=O)OCC(C)(C)C (racemic) [Example 26]
1610 nM,–,Cc1noc(-c2ccc(O[C@@H]3CCC[C@@H](C(=O)O)C3)cc2)c1CNC(=O)O[C@@H](C)c1ccccc1 (mixture of isomers) [Example 16]
63 nM,–,Cc1noc(-c2ccc(O[C@H]3CCC[C@H](C(=O)O)C3)cn2)c1CNC(=O)OC1CCCC1 [Example 38]
25 nM,–,Cc1cccc(COC(=O)NCc2c(C)noc2-c2ccc(O[C@H]3CCC[C@H](C(=O)O)C3)cn2)c1 [Example 5]
2.77 nM,–,Cc1noc(-c2ccc(O[C@H]3CCC[C@H](C(=O)O)C3)cc2)c1CNC(=O)OCc1ccc(Cl)cc1 [Example 12]
–,27 nM,"Cc1noc(-c2ccc(O[C@H]3CCC[C@H](C(=O)O)C3)cn2)c1CNC(=O)OCc1cc(F)cc(F)c1 [Example 37, (1S,3S)-3-((6-(4-(((((3,5-difluorobenzyl)oxy)carbonyl)amino)methyl)-3-methylisoxazol-5-yl)pyridin-3-yl)oxy)cyclohexane-1-carboxylic Acid]"
33 nM,–,CCCCOC(=O)N(C)Cc1c(C)noc1-c1ccc(O[C@H]2CCC[C@H](C(=O)O)C2)cn1 [Example 60]
